Data on 27 molecules can be found in US10906889B2, “Polycyclic inhibitors of cyclin-dependent kinase 7 (CDK7)” (Dana-Farber Cancer Institute, Inc., priority 2013, dated 2021).

One experiment addresses T1, CDK7 (Homo sapiens, UniProt P50613).
T1 construct: purchased Life Technologies (assay service)
Put plainly: Adapta kinase assay (Life Technologies), CDK7. The class given is biochemical.

The subject of the next experiment is Jurkat cells. Put plainly: Cell proliferation (CellTiter-Glo, 72 hour), Jurkat. To be noted: Homo sapiens, blood cancer cell line. The class given is cell-based. A general note: In ATP-based viability assays light output follows the ATP content of the culture.
[1] abbreviates: Table 1C, co-factors cyclin H and MNAT1, read-out: CDK7 IC50.

Like-named read-outs stand apart in the source and are kept apart here. Bounds are passed on as bounds.

T1 sequence (P50613 whole entry): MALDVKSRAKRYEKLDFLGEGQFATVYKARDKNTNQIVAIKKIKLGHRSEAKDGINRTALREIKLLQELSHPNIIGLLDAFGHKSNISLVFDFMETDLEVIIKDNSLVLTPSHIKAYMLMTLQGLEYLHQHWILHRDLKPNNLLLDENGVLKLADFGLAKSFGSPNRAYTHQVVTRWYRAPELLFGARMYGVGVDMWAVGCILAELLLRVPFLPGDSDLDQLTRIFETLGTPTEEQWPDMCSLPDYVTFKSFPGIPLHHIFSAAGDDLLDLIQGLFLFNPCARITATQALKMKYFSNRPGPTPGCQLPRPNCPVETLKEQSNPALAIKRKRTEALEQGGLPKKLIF
T1 sequence (P51946 whole entry partner): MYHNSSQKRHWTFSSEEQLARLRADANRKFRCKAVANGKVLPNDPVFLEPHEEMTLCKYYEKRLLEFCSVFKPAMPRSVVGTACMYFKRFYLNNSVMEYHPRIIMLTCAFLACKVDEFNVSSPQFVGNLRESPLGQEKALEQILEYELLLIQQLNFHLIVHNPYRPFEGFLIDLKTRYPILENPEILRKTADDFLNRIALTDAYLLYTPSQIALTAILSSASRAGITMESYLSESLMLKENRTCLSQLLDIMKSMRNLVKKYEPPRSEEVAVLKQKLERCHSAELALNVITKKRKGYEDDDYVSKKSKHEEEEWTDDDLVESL
T1 sequence (P51948 whole entry partner): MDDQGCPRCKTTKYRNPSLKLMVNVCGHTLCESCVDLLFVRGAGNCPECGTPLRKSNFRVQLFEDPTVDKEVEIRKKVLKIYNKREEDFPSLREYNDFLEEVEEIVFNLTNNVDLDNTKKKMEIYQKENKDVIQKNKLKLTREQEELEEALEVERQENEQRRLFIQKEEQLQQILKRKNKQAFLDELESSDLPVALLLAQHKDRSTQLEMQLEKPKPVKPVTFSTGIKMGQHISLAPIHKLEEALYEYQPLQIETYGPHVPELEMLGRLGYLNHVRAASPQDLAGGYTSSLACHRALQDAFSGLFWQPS

On to `CN(C)C/C=C/C(=O)Nc1ccc(C(=O)NC2CC(O)CC(Nc3ncc(Cl)c(-c4c[nH]c5ccccc45)n3)C2)cc1` (racemic) [Compound 109, (+/−)-N-(-3-(5-chloro-4-(1H-indol-3-yl)pyrimidin-2-ylamino)-5-hydroxycyclohexyl)-4-((E)-4-(dimethylamino)but-2-enamido)benzamide], for which the half-maximal inhibitory concentration (IC50) at CDK7 (setting [1]) is less than 100 nM; in the experiment on Jurkat cells, less than 500 nM.
Taken in the same sequence, the figures for `CN(C)C/C=C/C(=O)Nc1ccc(C(=O)NC2CC(F)CC(Nc3ncc(Cl)c(-c4c[nH]c5ccccc45)n3)C2)cc1` (racemic) [Compound 119, (+/−)-N-(3-(5-chloro-4-(1H-indol-3-yl)pyrimidin-2-ylamino)-5-fluorocyclohexyl)-4-((E)-4-(dimethylamino)but-2-enamido)benzamide] were less than 100 nM and less than 500 nM.
Taken in the same sequence, the figures for `CN(C)C/C=C/C(=O)Nc1ccc(C(=O)NC2CC(Nc3ncc(Cl)c(-c4c[nH]c5ccccc45)n3)CC(F)(F)C2)cc1` (racemic) [Compound 122, (+/−)-N-(5-(5-chloro-4-(1H-indol-3-yl)pyrimidin-2-ylamino)-3,3-difluorocyclohexyl)-4-((E)-4-(dimethylamino)but-2-enamido)benzamide] were less than 100 nM and less than 500 nM.
For `CN(C)C/C=C/C(=O)Nc1ccc(C(=O)NC2CCC(Nc3ncc(Cl)c(-c4c[nH]c5ccccc45)n3)CC2)cc1` (stereo not drawn) [Compound 105], the IC50 on CDK7 (setting [1]) was less than 100 nM; on CDK7 (Table 2, co-factors cyclin H and MNAT1, read-out: CDK7 (calculated IC50)) it was less than 100 nM.
As to `CN(C)C/C=C/C(=O)Nc1ccc(C(=O)N[C@H]2CC[C@H](Nc3ncc(Cl)c(-c4c[nH]c5ccccc45)n3)CC2)cc1` [Compound 106], the IC50 at CDK7 (setting [1]) is less than 100 nM.
On to `CN(C)C/C=C/C(=O)Nc1ccc(C(=O)NC23CC4CC(C2)CC(Nc2ncc(Cl)c(-c5c[nH]c6ccccc56)n2)(C4)C3)cc1` [Compound 108, (E)-N-(3-(5-chloro-4-(1H-indol-3-yl)pyrimidin-2-ylamino)tricyclo[3.3.1.1^3,7]decanyl)-4-(4-(dimethylamino)but-2-enamido)benzamide], for which the 50% inhibitory concentration (IC50) is 100 to 1000 nM on CDK7 (setting [1]) and 500 to 5000 nM in the experiment with Jurkat cells.
The like results for `O=C(/C=C/CN1CCOCC1)Nc1ccc(C(=O)N[C@H]2CCC[C@@H](Nc3ncc(Cl)c(-c4c[nH]c5ccccc45)n3)C2)cc1` [Compound 110, N-((1S,3R)-3-(5-chloro-4-(1H-indol-3-yl)pyrimidin-2-ylamino)cyclohexyl)-4-((E)-4-morpholinobut-2-enamido)benzamide] were, in that order, less than 100 nM and less than 500 nM.
In the case of `CN1CCN(C/C=C/C(=O)Nc2ccc(C(=O)N[C@H]3CCC[C@@H](Nc4ncc(Cl)c(-c5c[nH]c6ccccc56)n4)C3)cc2)CC1` [Compound 111, N-((1S,3R)-3-(5-chloro-4-(1H-indol-3-yl)pyrimidin-2-ylamino)cyclohexyl)-4-((E)-4-(4-methylpiperazin-1-yl)but-2-enamido)benzamide], the values for the IC50 on CDK7 (setting [1]) and in the experiment with Jurkat cells were less than 100 nM and less than 500 nM, respectively.
The like results for `C=CC(=O)Nc1ccc(C(=O)N[C@H]2CCC[C@@H](Nc3ncc(Cl)c(-c4c[nH]c5ccccc45)n3)C2)cc1` [Compound 112, 4-acrylamido-N-((1S,3R)-3-(5-chloro-4-(1H-indol-3-yl)pyrimidin-2-ylamino)cyclohexyl)benzamide] were, in that order, less than 100 nM and less than 500 nM.
Taken in the same sequence, the figures for `C=C(C)C(=O)Nc1ccc(C(=O)N[C@H]2CCC[C@@H](Nc3ncc(Cl)c(-c4c[nH]c5ccccc45)n3)C2)cc1` [Compound 113, N-((1S,3R)-3-(5-chloro-4-(1H-indol-3-yl)pyrimidin-2-ylamino)cyclohexyl)-4-methacrylamidobenzamide] were 100 to 1000 nM and 500 to 5000 nM.
The like results for `CN(C)C/C=C/C(=O)Nc1ccc(NC(=O)[C@H]2CCC[C@@H](Nc3ncc(Cl)c(-c4c[nH]c5ccccc45)n3)C2)cc1` [Compound 114, (1S,3R,E)-3-(5-chloro-4-(1H-indol-3-yl)pyrimidin-2-ylamino)-N-(4-(4-(dimethylamino)but-2-enamido)phenyl)cyclohexanecarboxamide] were, in that order, less than 100 nM and less than 500 nM.
`CN(C)C/C=C/C(=O)Nc1ccc(C(=O)N[C@H]2CCC[C@@H](Nc3ncc(C4CC4)c(-c4c[nH]c5ccccc45)n3)C2)cc1` [Compound 115, N-((1S,3R)-3-(5-cyclopropyl-4-(1H-indol-3-yl)pyrimidin-2-ylamino)cyclohexyl)-4-((E)-4-(dimethylamino)but-2-enamido)benzamide]: the IC50 at CDK7 (setting [1]) was less than 100 nM; in the experiment with Jurkat cells, less than 500 nM.
The like results for `CN(C)C/C=C/C(=O)Nc1ccc(C(=O)N[C@H]2CCC[C@@H](Nc3ncc(Cl)c(-c4cccnc4)n3)C2)cc1` [Compound 116, N-((1S,3R)-3-(5-chloro-4-(pyridin-3-yl)pyrimidin-2-ylamino)cyclohexyl)-4-((E)-4-(dimethylamino)but-2-enamido)benzamide] were, in that order, 100 to 1000 nM and less than 500 nM.
Taken in the same sequence, the figures for `CN(C)C/C=C/C(=O)Nc1ccc(C(=O)N[C@H]2CCC[C@@H](Nc3ncc(C#N)c(-c4c[nH]c5ccccc45)n3)C2)cc1` [Compound 117, N-((1S,3R)-3-(5-cyano-4-(1H-indol-3-yl)pyrimidin-2-ylamino)cyclohexyl)-4-((E)-4-(dimethylamino)but-2-enamido)benzamide] were less than 100 nM and less than 500 nM.
Taken in the same sequence, the figures for `CC(C)=CC(=O)Nc1ccc(C(=O)N[C@H]2CCC[C@@H](Nc3ncc(Cl)c(-c4c[nH]c5ccccc45)n3)C2)cc1` [Compound 118, N-((1S,3R)-3-(5-chloro-4-(1H-indol-3-yl)pyrimidin-2-ylamino)cyclohexyl)-4-(3-methylbut-2-enamido)benzamide] were 100 to 1000 nM and 500 to 5000 nM.
As to `CN(C)C/C=C/C(=O)Nc1ccc(C(=O)N[C@@H]2C[C@H](F)C[C@H](Nc3ncc(Cl)c(-c4c[nH]c5ccccc45)n3)C2)cc1` [Compound 120, N-((1S,3R,5R)-3-(5-chloro-4-(1H-indol-3-yl)pyrimidin-2-ylamino)-5-fluorocyclohexyl)-4-((E)-4-(dimethylamino)but-2-enamido)benzamide], the IC50 at CDK7 (setting [1]) fell in the range of 100 to 1000 nM; in the experiment on Jurkat cells it was 500 to 5000 nM.
Taken in the same sequence, the figures for `CN(C)C/C=C/C(=O)Nc1ccc(C(=O)NC23CCCC(Nc4ncc(Cl)c(-c5c[nH]c6ccccc56)n4)(C2)C3)cc1` [Compound 121, (E)-N-(5-(5-chloro-4-(1H-indol-3-yl)pyrimidin-2-ylamino)bicyclo[3.1.1]heptan-1-yl)-4-(4-(dimethylamino)but-2-enamido)benzamide] were less than 100 nM and less than 500 nM.
Taken in the same sequence, the figures for `CN(C)C/C=C/C(=O)Nc1ccc(S(=O)(=O)N[C@H]2CCC[C@@H](Nc3ncc(Cl)c(-c4c[nH]c5ccccc45)n3)C2)cc1` [Compound 123, (E)-N-(4-(N-((1S,3R)-3-(5-chloro-4-(1H-indol-3-yl)pyrimidin-2-ylamino)cyclohexyl)sulfamoyl)phenyl)-4-(dimethylamino)but-2-enamide] were 100 to 1000 nM and less than 500 nM.
Taken in the same sequence, the figures for `O=C(/C=C/CO)Nc1ccc(C(=O)N[C@H]2CCC[C@@H](Nc3ncc(Cl)c(-c4c[nH]c5ccccc45)n3)C2)cc1` [Compound 124, N-((1S,3R)-3-(5-chloro-4-(1H-indol-3-yl)pyrimidin-2-ylamino)cyclohexyl)-4-((E)-4-hydroxybut-2-enamido)benzamide] were less than 100 nM and less than 500 nM.
For `CN(C)C/C=C/C(=O)Nc1ccc(C(=O)N[C@H]2CCC[C@@H](Nc3nccc(-c4c[nH]c5ccccc45)n3)C2)cc1` [Compound 132, N-((1S,3R)-3-(4-(1H-indol-3-yl)pyrimidin-2-ylamino)cyclohexyl)-4-((E)-4-(dimethylamino)but-2-enamido)benzamide], the IC50 on CDK7 (setting [1]) is greater than 1000 nM.
Same read-out and setting: to `C=CC(=O)Nc1ccc([C@@H](N[C@H]2CCC[C@@H](Nc3ncc(Cl)c(-c4c[nH]c5ccccc45)n3)C2)C(F)(F)F)cc1` [Compound 136, N-(4-((R)-1-((1S,3R)-3-(5-chloro-4-(1H-indol-3-yl)pyrimidin-2-ylamino)cyclohexylamino)-2,2,2-trifluoroethyl)phenyl)acrylamide] belongs greater than 1000 nM.
Still for that read-out and setting: to `CN(C)C/C=C/C(=O)Nc1ccc(C(=O)N[C@H]2CCC[C@@H](Nc3ncc(Cl)c(-c4cn(C)c5ccccc45)n3)C2)cc1` [Compound 150] belongs less than 100 nM; to `C=CC(=O)Nc1ccc(C(=O)N[C@H]2CCC[C@@H](Nc3ncc(Cl)c(-c4n[nH]c5ccccc45)n3)C2)cc1` [Compound 151, 4-acrylamido-N-((1S,3R)-3-((5-chloro-4-(1H-indazol-3-yl)pyrimidin-2-yl)amino)cyclohexyl)benzamide], less than 100 nM; to `C=CC(=O)Nc1ccc(C(=O)N[C@H]2CCC[C@@H](Nc3ncc(Cl)c(-c4c(C)[nH]c5ccccc45)n3)C2)cc1` [Compound 153, 4-acrylamido-N-((1S,3R)-3-((5-chloro-4-(2-methyl-1H-indol-3-yl)pyrimidin-2-yl)amino)cyclohexyl)benzamide], less than 100 nM.
The same measure, in the same setting: to `Cc1[nH]c2ccccc2c1-c1nc(N[C@@H]2CCC[C@H](NC(=O)c3ccc(NC(=O)/C=C/CN(C)C)cc3)C2)ncc1Cl` [Compound 154, N-((1S,3R)-3-((5-chloro-4-(2-methyl-1H-indol-3-yl)pyrimidin-2-yl)amino)cyclohexyl)-4-((E)-4-(dimethylamino)but-2-enamido)benzamide] belongs less than 100 nM; to `C=CC(=O)Nc1cccc(CO[C@H]2CC[C@H](Nc3ncc(Cl)c(-c4c[nH]c5ccccc45)n3)CC2)c1` [Compound 155, N-(3-((((1R,4R)-4-((5-chloro-4-(1H-indol-3-yl)pyrimidin-2-yl)amino)cyclohexyl)oxy)methyl)phenyl)acrylamide], greater than 1000 nM; to `CON(C)C/C=C/C(=O)Nc1ccc(C(=O)N[C@H]2CCC[C@@H](Nc3ncc(Cl)c(-c4c[nH]c5ccccc45)n3)C2)cc1` [Compound 160], 100 to 1000 nM.

A word on the IC50: it is the midpoint of a concentration-inhibition curve.
